Laboratory results reported in PMC9851200, “Multiparameter phenotypic screening for endogenous TFEB and TFE3 translocation identifies novel chemical series modulating lysosome function” (Autophagy, 2022).

Key:
Assay type in all cases: binding
[1] = molecular target: kinases (KINOMEscan panel) (Homo sapiens, UniProt P35590); conditions: TIE1; NEW KINOMEscan
[2] = molecular target: T1, kinases (KINOMEscan panel) (Homo sapiens, UniProt O15146); conditions: MUSK; NEW KINOMEscan
T1 sequence (O15146 24-869): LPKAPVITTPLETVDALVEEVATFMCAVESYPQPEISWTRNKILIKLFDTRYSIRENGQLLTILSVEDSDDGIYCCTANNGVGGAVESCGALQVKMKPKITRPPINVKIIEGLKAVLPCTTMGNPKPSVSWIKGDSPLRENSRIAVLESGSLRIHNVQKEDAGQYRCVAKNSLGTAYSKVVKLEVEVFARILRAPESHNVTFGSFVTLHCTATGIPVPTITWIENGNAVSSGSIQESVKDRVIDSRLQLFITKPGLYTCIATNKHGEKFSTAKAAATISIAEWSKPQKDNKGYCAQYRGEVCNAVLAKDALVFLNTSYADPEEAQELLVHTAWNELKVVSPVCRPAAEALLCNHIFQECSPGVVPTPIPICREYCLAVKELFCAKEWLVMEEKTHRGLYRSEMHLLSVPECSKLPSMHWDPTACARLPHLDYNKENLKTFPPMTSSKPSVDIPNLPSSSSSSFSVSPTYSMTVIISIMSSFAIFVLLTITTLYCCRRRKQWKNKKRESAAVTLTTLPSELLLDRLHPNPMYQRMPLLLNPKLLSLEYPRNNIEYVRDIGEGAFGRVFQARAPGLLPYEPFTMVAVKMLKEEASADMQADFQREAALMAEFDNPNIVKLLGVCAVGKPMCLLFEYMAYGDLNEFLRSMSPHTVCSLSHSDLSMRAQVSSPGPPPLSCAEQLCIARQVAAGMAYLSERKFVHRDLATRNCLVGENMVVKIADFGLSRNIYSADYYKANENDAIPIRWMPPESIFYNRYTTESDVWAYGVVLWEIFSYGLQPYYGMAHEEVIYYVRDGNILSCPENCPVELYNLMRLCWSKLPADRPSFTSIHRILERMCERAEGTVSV

[3] = molecular target: kinases (KINOMEscan panel) (Homo sapiens, UniProt P19784); conditions: CSNK2A2; NEW KINOMEscan
[4] = molecular target: T2, kinases (KINOMEscan panel) (Homo sapiens, UniProt Q9UQB9); conditions: AURKC; NEW KINOMEscan
T2 sequence (Q9UQB9 1-309): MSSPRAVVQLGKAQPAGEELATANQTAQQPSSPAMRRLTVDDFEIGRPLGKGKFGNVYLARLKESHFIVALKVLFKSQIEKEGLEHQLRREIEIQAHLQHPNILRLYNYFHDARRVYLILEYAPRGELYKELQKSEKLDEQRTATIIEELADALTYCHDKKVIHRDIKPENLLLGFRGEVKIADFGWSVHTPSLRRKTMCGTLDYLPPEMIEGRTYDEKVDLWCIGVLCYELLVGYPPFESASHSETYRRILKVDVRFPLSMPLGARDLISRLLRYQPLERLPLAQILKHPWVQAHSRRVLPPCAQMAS

[5] = molecular target: T3, kinases (KINOMEscan panel) (Homo sapiens, UniProt P51956); conditions: kinase NEK3; NEW KINOMEscan
T3 sequence (P51956 1-506): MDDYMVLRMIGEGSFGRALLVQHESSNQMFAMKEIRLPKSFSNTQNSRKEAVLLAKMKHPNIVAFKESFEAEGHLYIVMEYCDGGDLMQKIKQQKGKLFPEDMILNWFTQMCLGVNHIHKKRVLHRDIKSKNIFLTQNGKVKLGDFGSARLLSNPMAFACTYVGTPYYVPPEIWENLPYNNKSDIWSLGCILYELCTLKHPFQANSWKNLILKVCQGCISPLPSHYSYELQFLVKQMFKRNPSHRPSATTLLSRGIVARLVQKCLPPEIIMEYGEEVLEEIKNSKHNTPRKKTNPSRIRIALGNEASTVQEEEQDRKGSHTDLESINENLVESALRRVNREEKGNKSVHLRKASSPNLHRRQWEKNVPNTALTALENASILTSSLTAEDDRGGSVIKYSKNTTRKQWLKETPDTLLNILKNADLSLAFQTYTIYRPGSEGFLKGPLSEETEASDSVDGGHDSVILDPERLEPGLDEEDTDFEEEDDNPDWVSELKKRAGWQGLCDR

[6] = molecular target: T4, kinases (KINOMEscan panel) (Homo sapiens, UniProt Q13237); conditions: PRKG2; NEW KINOMEscan
T4 sequence (Q13237 1-762): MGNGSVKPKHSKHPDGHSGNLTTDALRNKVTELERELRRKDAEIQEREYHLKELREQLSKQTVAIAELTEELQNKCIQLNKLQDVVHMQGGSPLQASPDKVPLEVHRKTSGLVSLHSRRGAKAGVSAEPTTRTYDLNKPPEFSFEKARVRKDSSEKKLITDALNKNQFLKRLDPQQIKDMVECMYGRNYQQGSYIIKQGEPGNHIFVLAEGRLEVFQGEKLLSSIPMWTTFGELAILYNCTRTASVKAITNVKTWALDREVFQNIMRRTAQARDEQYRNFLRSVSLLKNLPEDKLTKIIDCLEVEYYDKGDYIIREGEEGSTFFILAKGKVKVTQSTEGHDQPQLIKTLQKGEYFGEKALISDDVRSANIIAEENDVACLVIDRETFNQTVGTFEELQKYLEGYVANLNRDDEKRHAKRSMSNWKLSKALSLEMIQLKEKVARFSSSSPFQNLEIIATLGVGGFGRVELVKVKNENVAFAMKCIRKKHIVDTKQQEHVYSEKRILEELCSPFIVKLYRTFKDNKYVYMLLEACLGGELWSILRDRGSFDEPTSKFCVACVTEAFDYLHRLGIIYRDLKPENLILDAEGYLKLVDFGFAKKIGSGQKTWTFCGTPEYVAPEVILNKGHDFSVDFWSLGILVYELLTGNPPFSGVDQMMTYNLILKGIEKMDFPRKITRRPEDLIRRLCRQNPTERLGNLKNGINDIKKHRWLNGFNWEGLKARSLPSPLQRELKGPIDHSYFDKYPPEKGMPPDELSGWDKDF

Chain of kinases (KINOMEscan panel) (Homo sapiens, UniProt P35590) (P35590 22-1138): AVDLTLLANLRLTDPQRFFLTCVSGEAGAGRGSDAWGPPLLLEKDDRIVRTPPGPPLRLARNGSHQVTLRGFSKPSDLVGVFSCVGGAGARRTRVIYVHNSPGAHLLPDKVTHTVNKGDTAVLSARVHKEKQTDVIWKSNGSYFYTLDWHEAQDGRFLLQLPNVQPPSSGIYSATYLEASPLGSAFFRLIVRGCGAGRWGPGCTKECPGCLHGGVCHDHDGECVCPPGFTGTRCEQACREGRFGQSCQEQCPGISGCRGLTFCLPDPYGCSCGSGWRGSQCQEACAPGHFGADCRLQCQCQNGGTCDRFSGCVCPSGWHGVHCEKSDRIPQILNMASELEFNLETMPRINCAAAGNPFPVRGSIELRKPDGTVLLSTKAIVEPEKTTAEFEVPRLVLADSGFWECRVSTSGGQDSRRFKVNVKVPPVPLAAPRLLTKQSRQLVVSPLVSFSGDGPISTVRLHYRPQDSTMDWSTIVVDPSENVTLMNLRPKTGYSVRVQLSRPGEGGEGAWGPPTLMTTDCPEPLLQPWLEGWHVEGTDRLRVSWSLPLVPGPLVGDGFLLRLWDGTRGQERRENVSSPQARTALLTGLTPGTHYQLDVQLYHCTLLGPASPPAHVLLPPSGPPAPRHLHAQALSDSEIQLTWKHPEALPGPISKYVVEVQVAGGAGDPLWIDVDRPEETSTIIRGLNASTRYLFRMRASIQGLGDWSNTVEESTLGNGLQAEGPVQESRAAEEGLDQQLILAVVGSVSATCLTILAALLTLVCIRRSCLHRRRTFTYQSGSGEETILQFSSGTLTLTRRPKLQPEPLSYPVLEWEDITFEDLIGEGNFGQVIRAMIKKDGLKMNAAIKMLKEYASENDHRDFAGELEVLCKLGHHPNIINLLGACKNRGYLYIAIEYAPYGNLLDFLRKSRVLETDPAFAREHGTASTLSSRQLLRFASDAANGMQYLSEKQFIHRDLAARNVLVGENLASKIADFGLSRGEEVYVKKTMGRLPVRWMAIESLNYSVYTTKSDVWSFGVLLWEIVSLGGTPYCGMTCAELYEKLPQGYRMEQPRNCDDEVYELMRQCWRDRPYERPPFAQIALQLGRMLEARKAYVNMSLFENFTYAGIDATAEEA
Chain of kinases (KINOMEscan panel) (Homo sapiens, UniProt P19784) (P19784 whole entry): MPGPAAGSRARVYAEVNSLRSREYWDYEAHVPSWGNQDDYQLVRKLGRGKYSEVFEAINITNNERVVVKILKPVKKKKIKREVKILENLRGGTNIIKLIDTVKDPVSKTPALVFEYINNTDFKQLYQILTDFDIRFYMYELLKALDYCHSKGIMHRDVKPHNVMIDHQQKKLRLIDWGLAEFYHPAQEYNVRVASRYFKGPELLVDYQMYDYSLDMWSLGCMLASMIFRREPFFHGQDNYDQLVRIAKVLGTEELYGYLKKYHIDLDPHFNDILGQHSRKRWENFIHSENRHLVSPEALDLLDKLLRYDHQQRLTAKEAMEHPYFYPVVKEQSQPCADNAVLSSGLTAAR

Row | Structure (SMILES) | KINOMEscan TIE1 [1] | KINOMEscan MUSK [2] | KINOMEscan CSNK2A2 [3] | KINOMEscan AURKC [4] | KINOMEscan NEK3 [5] | KINOMEscan PRKG2 [6]
1 | Cc1cccc(-c2nc(Nc3ccc4nn(C)cc4c3)c3ccccc3n2)n1 [NK167] | 0 | 2 | 0 | 0 | 46 | 5
2 | Cc1cccc(-c2nc(N(C)c3ccc4ncsc4c3)c3ccccc3n2)n1 [NK-161] | 0 | 0 | 5 | 0 | 33 | 0
